In patent US9034352B2, “Microbicide combinations containing silver” (Rohm and Haas Company, priority 2006, dated 2015):
Read-outs that look alike come from different tables or passages of the source.

Key:
Assay in all cases: Synergy test, high resolution MIC microtiter plate assay
Assay type in all cases: cell-based
[1] = test system: Samonella choleraesuis (S. choleraesuis—ATCC #10708); conditions: Salmonella enterica, read-out: MIC of component acting alone (end point)
Excerpt: (§1) One measure of synergism is the industrially accepted method described by Kull, F. C.; Eisman, P. C.; Sylwestrowicz, H. D. and Mayer, R. L., in Applied Microbiology 9:538-541 (1961), using the ratio determined by the formula: Ca/CA+Cb/CB=Synergy Index (“SI”) wherein:
(§2) CA=concentration of compound A (first component) in ppm, acting alone, which produced an end point (MIC of Compound A).
(§3) Ca=concentration of compound A in ppm, in the mixture, which produced an end point.
(§4) CB=concentration of compound B (second component) in ppm, acting alone, which produced an end point (MIC of Compound B).
(§5) Cb=concentration of compound B in ppm, in the mixture, which produced an end point.
(§6) When the sum of Ca/CA and Cb/CB is greater than one, antagonism is indicated. […] The lower the SI, the greater the synergy shown by that particular mixture. The minimum inhibitory concentration (MIC) of an antimicrobial compound is the lowest concentration tested under a specific set of conditions that prevents the growth of added microorganisms.
(§7) Synergy tests were conducted using standard microtiter plate assays with media designed for optimal growth of the test microorganism. Soybean Casein Digest Broth (Tryptic Soy Broth, TSB medium) or minimal salt medium supplemented with 0.2% glucose and 0.1% yeast extract (M9GY medium) was used for testing bacteria; Potato Dextrose Broth (PDB medium) was used for testing yeast and mold. In this method, a wide range of combinations of microbicides was tested by conducting high resolution MIC assays in the presence of various concentrations of the biocides. High resolution MICs were determined by adding varying amounts of microbicide to one column of a microtitre plate and doing subsequent ten-fold dilutions using an automated liquid handling system.
The synergy of the combinations of the present invention was determined against four bacteria, gram positive Staphylococcus aureus (S. aureus—ATCC #6538) and gram negative Pseudomonas aeruginosa (P. aeruginosa—ATCC #15442), Samonella choleraesuis (S. choleraesuis—ATCC #10708) and Esherichia coli (E. coli—ATCC #8739), a yeast, Candida albicans (C. albicans—ATCC 10231), and a mold, Aspergillus niger (A. niger—ATCC 16404). The bacteria were used at a concentration of about 1-6×10^6 bacteria per mL and the yeast and mold at 1-5×10^5 fungi per mL. These microorganisms are representative of natural contaminants in many consumer and industrial applications. […] (yeast and mold) or 30° C. (bacteria).
(§8) The end point values in the following examples for the silver-polymer complex are reported on an active silver ion basis.

[2] = test system: Aspergillus niger (A. niger—ATCC 16404); conditions: Aspergillus niger, A. niger, Ag-polymer on active silver ion basis, read-out: MIC of component acting alone (end point)
Excerpt: as §1, §2, §3, §4, §5, §6, §7
(§9) The bacteria were used at a concentration of about 1-6×10^6 bacteria per mL and the yeast and mold at 1-5×10^5 fungi per mL. These microorganisms are representative of natural contaminants in many consumer and industrial applications. […] (yeast and mold) or 30° C. (bacteria).

[3] = test system: Pseudomonas aeruginosa (P. aeruginosa—ATCC #15442); conditions: Pseudomonas aeruginosa, ATCC15442, P. aeruginosa, Ag-polymer on active silver ion basis, read-out: MIC of component acting alone (end point)
Excerpt: as §1, §2, §3, §4, §5, §6, §7, §9

[4] = test system: Staphylococcus aureus (S. aureus—ATCC #6538); conditions: Staphylococcus aureus, ATCC6538, S. aureus, Ag-polymer on active silver ion basis, read-out: MIC of component acting alone (end point)
Excerpt: as §1, §2, §3, §4, §5, §6, §7, §9

[5] = test system: Candida albicans (C. albicans—ATCC 10231); conditions: Candida albicans, ATCC10231, C. albicans, Ag-polymer on active silver ion basis, read-out: MIC of component acting alone (end point)
Excerpt: as §1, §2, §3, §4, §5, §6, §7
(§10) […]. The bacteria were used at a concentration of about 1-6×10^6 bacteria per mL and the yeast and mold at 1-5×10^5 fungi per mL. These microorganisms are representative of natural contaminants in many consumer and industrial applications. […] (yeast and mold) or 30° C. (bacteria).
as §8

[6] = test system: Esherichia coli (E. coli—ATCC #8739); conditions: Escherichia coli, Ag-polymer on active silver ion basis, read-out: MIC of component acting alone (end point)
Excerpt: as §1, §2, §3, §4, §5, §6, §7, §10, §8

[7] = ATCC16404, 168 h, contact time 7 days

SMILES	MIC ([1]; S. choleraesuis, contact time 24 hour, Ag-polymer on active silver ion basis) [µg/mL]	MIC ([1]; S. choleraesuis, contact time 48 hour, Ag-polymer on active silver ion basis) [µg/mL]	MIC ([2]; ATCC16404, 72 h, contact time 3 days) [µg/mL]	MIC [2, 7] [µg/mL]	MIC ([3]; contact time 24 hour) [µg/mL]	MIC ([4]; contact time 24 hour) [µg/mL]	MIC ([4]; contact time 48 hour) [µg/mL]	MIC ([5]; contact time 24 hour) [µg/mL]	MIC ([5]; contact time 48 hour) [µg/mL]	MIC ([6]; ATCC8739, contact time 24 hour) [µg/mL]	MIC ([6]; ATCC8739, contact time 48 hour) [µg/mL]	MIC [1] [µg/mL]	MIC ([3]; contact time 48 hour) [µg/mL]
CCCCCCCCn1sccc1=O [OIT, 2-n-octyl-4-isothiazolin-3-one, reference compound]	361	361	3.9	5.76	444	72.8	72.8	0.81	0.99	294	294	–	–
CCCCCCCCn1sc(Cl)c(Cl)c1=O [DCOIT, 4,5-dichloro-2-n-octyl-4-isothiazolin-3-one, reference compound]	–	–	–	2	1.5	0.29	0.29	–	0.15	0.29	0.43	1.5	2.9
